Test results published in patent publication US11753404B2, “Aminothiazole compounds as c-Kit inhibitors” (Ariad Pharmaceuticals, Inc., priority 2016, dated 2023).

What was measured:
Assay in all cases: c-Kit assay: Ba/F3 KIT mutant cell viability (Cell Titer-Glo, 72 hours)
Format in all cases: cell-based
Details in all cases: viability after 72 hours
[1] = target: T1, BAF3 FL KIT EX11DEL/T670I (Homo sapiens, UniProt P10721, T670I, cells depend on it, form not given)
T1 construct: BAF3 FL KIT EX11DEL/T670I
T1 sequence (P10721 with tags, fused parts or gaps DEL557-558/T670I, form open): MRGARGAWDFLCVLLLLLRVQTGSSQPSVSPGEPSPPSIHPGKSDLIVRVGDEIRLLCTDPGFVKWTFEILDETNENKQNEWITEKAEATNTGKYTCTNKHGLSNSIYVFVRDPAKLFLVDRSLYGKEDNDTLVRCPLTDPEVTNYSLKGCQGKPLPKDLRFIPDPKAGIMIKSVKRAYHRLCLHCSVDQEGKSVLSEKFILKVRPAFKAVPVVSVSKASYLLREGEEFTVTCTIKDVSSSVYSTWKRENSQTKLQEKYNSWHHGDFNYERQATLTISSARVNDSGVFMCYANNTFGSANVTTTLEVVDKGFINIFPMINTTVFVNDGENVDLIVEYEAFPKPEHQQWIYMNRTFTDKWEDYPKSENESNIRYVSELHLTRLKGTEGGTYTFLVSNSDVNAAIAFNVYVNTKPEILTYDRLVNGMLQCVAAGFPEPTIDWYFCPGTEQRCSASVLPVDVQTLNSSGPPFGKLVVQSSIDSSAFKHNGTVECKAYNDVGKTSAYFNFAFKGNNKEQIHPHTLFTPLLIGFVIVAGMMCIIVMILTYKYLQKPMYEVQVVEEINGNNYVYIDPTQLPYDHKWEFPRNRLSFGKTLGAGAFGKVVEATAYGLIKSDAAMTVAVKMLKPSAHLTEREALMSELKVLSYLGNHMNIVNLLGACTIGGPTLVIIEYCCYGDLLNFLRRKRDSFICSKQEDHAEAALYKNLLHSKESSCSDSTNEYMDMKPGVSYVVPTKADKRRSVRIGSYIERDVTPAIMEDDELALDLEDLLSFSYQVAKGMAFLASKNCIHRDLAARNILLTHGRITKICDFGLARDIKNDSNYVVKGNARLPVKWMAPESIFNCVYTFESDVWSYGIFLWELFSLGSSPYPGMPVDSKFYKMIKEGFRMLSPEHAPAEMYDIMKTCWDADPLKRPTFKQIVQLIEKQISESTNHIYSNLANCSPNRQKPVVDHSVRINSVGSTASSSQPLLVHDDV
Description: (§1) Generation of DBa/F3 KIT Mutant Engineered Cell Lines
(§2) KIT cDNAs were synthesized by GenScript and cloned into the pLVX-IRES-Puro vector (Clontech). Viral particles were produced by transfecting pLVX-IRES-puro vectors containing KIT mutant genes into HEK293 cells (Invitrogen) using the Trans-Lentiviral ORF Packaging Kit (Thermo Scientific). 48 hours post-transfection, virus-containing supernatants were harvested and incubated for another 48-72 hours with parental Ba/F3 cells (DSMZ) in the presence of 10 ng/mL IL-3 (R&D Systems). Transduced Ba/F3 cells were then selected by IL-3 withdrawal and puromycin (0.5-1 μg/mL, Invitrogen).
(§3) Cell lines (e.g., EX11DEL, EX11DEL/D816H, EX11DEL/T670I, and EX11DEL/V654A) were plated into 384 well plates using RPMI 1640 supplemented with 10% FBS at densities that produced linear growth and incubated at 37° C. in 5% (v/v) CO2. Cells were treated with eight concentrations of compound over a 4-fold dilution (10 μM to 0.61 nM) and viability was assessed using Cell Titer-Glo assay (Promega) after 72 hours. Data were plotted as percent viability relative to vehicle-treated cells. Dose-responses curves were generated and used to calculate IC50 values.

[2] = target: T2, BAF3 FL KIT EX11DEL/V654A (Homo sapiens, UniProt P10721, V654A, cells depend on it, form not given)
T2 construct: BAF3 FL KIT EX11DEL/V654A
T2 sequence (P10721 with tags, fused parts or gaps DEL557-558/V654A, form open): as the sequence (P10721 with tags, fused parts or gaps DEL557-558/T670I, form open) above, with V652A, I668T counted along it
Description: as §1, §2, §3

BAF3 FL KIT EX11DEL = target: T3, BAF3 FL KIT EX11DEL (Homo sapiens, UniProt P10721, cells depend on it, form not given)
T3 construct: BAF3 FL KIT EX11DEL
T3 sequence (P10721 with tags, fused parts or gaps DEL557-558): as the sequence (P10721 with tags, fused parts or gaps DEL557-558/T670I, form open) above, with I668T counted along it
Description: as §1, §2, §3

[3] = target: T4, BAF3 FL KIT EX11DEL/D816H (Homo sapiens, UniProt P10721, D816H, cells depend on it, form not given)
T4 construct: BAF3 FL KIT EX11DEL/D816H
T4 sequence (P10721 with tags, fused parts or gaps DEL557-558/D816H, form open): as the sequence (P10721 with tags, fused parts or gaps DEL557-558/T670I, form open) above, with I668T, D814H counted along it
Description: as §1, §2, §3

| Compound | GI50 [1] [nM] | GI50 [2] [nM] | GI50 (BAF3 FL KIT EX11DEL) [nM] | GI50 [3] [nM] |
| --- | --- | --- | --- | --- |
| Cc1ccc(C(=O)Nc2cc(C(F)(F)F)ccn2)cc1C#Cc1cnc(NC(=O)NCCN2CCOCC2)s1 [I-6, 4-methyl-3-((2-(3-(2-morpholinoethyl)ureido)thiazol-5-yl)ethynyl)-N-(4-(trifluoromethyl)pyridin-2-yl)benzamide] | 10 to 50 | 10 to 50 | < 10 | 10 to 50 |
| Cc1ccc(C(=O)Nc2cc(C(F)(F)F)ccn2)cc1C#Cc1cnc(NC(=O)N2CCNCC2)s1 [I-30, N-(5-((2-methyl-5-((4-(trifluoromethyl)pyridin-2-yl)carbamoyl)phenyl)ethynyl)thiazol-2-yl)piperazine-1-carboxamide] | 10 to 50 | 10 to 50 | < 10 | 10 to 50 |
| COCCN(C)C(=O)Nc1ncc(C#Cc2cc(C(=O)Nc3cc(C(F)(F)F)ccn3)ccc2C)s1 [I-7, 3-((2-(3-(2-methoxyethyl)-3-methylureido)thiazol-5-yl)ethynyl)-4-methyl-N-(4-(trifluoromethyl)pyridin-2-yl)benzamide] | < 10 | 10 to 50 | < 10 | 10 to 50 |
| CNC(=O)Nc1ncc(C#Cc2cccc(C(=O)Nc3cc(C(F)(F)F)ccn3)c2)s1 [I-44, 3-((2-(3-methylureido)thiazol-5-yl)ethynyl)-N-(4-(trifluoromethyl)pyridin-2-yl)benzamide] | < 10 | 10 to 50 | < 10 | 10 to 50 |
| COCCN(C)C(=O)Nc1ncc(C#Cc2cc(NC(=O)c3cc(C(F)(F)F)ccn3)ccc2C)s1 [I-54, N-(3-((2-(3-(2-methoxyethyl)-3-methylureido)thiazol-5-yl)ethynyl)-4-methylphenyl)-4-(trifluoromethyl)picolinamide] | 10 to 50 | 10 to 50 | < 10 | 10 to 50 |
| Cc1ccc(C(=O)Nc2cc(C(F)(F)F)ccn2)cc1C#Cc1cnc(NC(=O)NCCN2CCCC2)s1 [I-12, 4-methyl-3-((2-(3-(2-(pyrrolidin-1-yl)ethyl)ureido)thiazol-5-yl)ethynyl)-N-(4-(trifluoromethyl)pyridin-2-yl)benzamide] | 50 to 100 | 50 to 100 | < 10 | 10 to 50 |
| Cc1ccc(NC(=O)c2cccc(OC(F)(F)F)c2)cc1C#Cc1cnc(NC(=O)N(C)C)s1 [I-56, N-(3-((2-(3,3-dimethylureido)thiazol-5-yl)ethynyl)-4-methylphenyl)-3-(trifluoromethoxy)benzamide] | 10 to 50 | 10 to 50 | < 10 | 10 to 50 |
| Cc1ccc(C(=O)Nc2cc(C(F)(F)F)ccn2)cc1C#Cc1cnc(NC(=O)N(C)C2CCC(O)CC2)s1 (centres unmarked) [I-22, 3-((2-(3-(4-hydroxycyclohexyl)-3-methylureido)thiazol-5-yl)ethynyl)-4-methyl-N-(4-(trifluoromethyl)pyridin-2-yl)benzamide] | < 10 | < 10 | < 10 | < 10 |
| Cc1ccc(C(=O)Nc2cc(C(F)(F)F)ccn2)cc1C#Cc1cnc(NC(=O)NC2CC2)s1 [I-17, 3-((2-(3-cyclopropylureido)thiazol-5-yl)ethynyl)-4-methyl-N-(4-(trifluoromethyl)pyridin-2-yl)benzamide] | 10 to 50 | 10 to 50 | < 10 | 10 to 50 |
| Cc1ccc(C(=O)Nc2cc(C(F)(F)F)ccn2)cc1C#Cc1cnc(NC(N)=O)s1 [I-2, 4-methyl-N-(4-(trifluoromethyl)pyridin-2-yl)-3-((2-ureidothiazol-5-yl)ethynyl)benzamide] | < 10 | < 10 | < 10 | 10 to 50 |
| CNCCN(C)C(=O)Nc1ncc(C#Cc2cc(C(=O)Nc3cc(C(F)(F)F)ccn3)ccc2C)s1 [I-28, 4-methyl-3-((2-(3-methyl-3-(2-(methylamino)ethyl)ureido)thiazol-5-yl)ethynyl)-N-(4-(trifluoromethyl)pyridin-2-yl)benzamide] | 10 to 50 | 10 to 50 | < 10 | 10 to 50 |
| Cc1ccc(C(=O)Nc2cc(C(F)(F)F)ccn2)cc1C#Cc1cnc(NC(=O)NCCN2CCC(O)C2)s1 (centres unmarked) [I-18, 3-((2-(3-(2-(3-hydroxypyrrolidin-1-yl)ethyl)ureido)thiazol-5-yl)ethynyl)-4-methyl-N-(4-(trifluoromethyl)pyridin-2-yl)benzamide] | 10 to 50 | 10 to 50 | < 10 | 10 to 50 |
| Cc1ccc(C(=O)Nc2cc(C(F)(F)F)ccn2)cc1C#Cc1cnc(NC(=O)N2CCN(CCO)CC2)s1 [I-27, 4-(2-hydroxyethyl)-N-(5-((2-methyl-5-((4-(trifluoromethyl)pyridin-2-yl)carbamoyl)phenyl)ethynyl)thiazol-2-yl)piperazine-1-carboxamide] | < 10 | 10 to 50 | < 10 | 10 to 50 |
| Cc1ccc(C(=O)Nc2cc(C(F)(F)F)ccn2)cc1C#Cc1cnc(NC(=O)NCC2CCN(C)CC2)s1 [I-13, 4-methyl-3-((2-(3-((1-methylpiperidin-4-yl)methyl)ureido)thiazol-5-yl)ethynyl)-N-(4-(trifluoromethyl)pyridin-2-yl)benzamide] | 10 to 50 | 10 to 50 | < 10 | 10 to 50 |
| Cc1ccc(NC(=O)c2cc(C(F)(F)F)ccn2)cc1C#Cc1cnc(NC(=O)N(C)CCO)s1 [I-60, N-(3-((2-(3-(2-hydroxyethyl)-3-methylureido)thiazol-5-yl)ethynyl)-4-methylphenyl)-4-(trifluoromethyl)picolinamide] | 50 to 100 | 10 to 50 | < 10 | 10 to 50 |
| NC(=O)Nc1ncc(C#Cc2ccc(F)c(C(=O)Nc3cc(C(F)(F)F)ccn3)c2)s1 [I-43, 2-fluoro-N-(4-(trifluoromethyl)pyridin-2-yl)-5-((2-ureidothiazol-5-yl)ethynyl)benzamide] | 100 to 10000 | 100 to 10000 | < 10 | 100 to 10000 |
| Cc1ccc(C(=O)Nc2cc(C(F)(F)F)ccn2)cc1C#Cc1cnc(NC(=O)N2CCC(C)CC2)s1 [I-25, 4-methyl-N-(5-((2-methyl-5-((4-(trifluoromethyl)pyridin-2-yl)carbamoyl)phenyl)ethynyl)thiazol-2-yl)piperidine-1-carboxamide] | 10 to 50 | 10 to 50 | 10 to 50 | 10 to 50 |
| COCCN(C)C(=O)Nc1ncc(C#Cc2cc(C(=O)Nc3ccc(CN4CCCC4)c(C(F)(F)F)c3)ccc2C)s1 [I-46, 3-((2-(3-(2-methoxyethyl)-3-methylureido)thiazol-5-yl)ethynyl)-4-methyl-N-(4-(pyrrolidin-1-ylmethyl)-3-(trifluoromethyl)phenyl)benzamide] | 10 to 50 | 50 to 100 | 10 to 50 | 10 to 50 |
| CNC(=O)Nc1ncc(C#Cc2cc(C(=O)Nc3cc(C(F)(F)F)ccn3)ccc2C)s1 [I-4, 4-methyl-3-((2-(3-methylureido)thiazol-5-yl)ethynyl)-N-(4-(trifluoromethyl)pyridin-2-yl)benzamide] | < 10 | 10 to 50 | < 10 | < 10 |
| Cc1ccc(C(=O)Nc2cc(C(F)(F)F)ccn2)cc1C#Cc1cnc(NC(=O)N2CCOCC2)s1 [I-35, N-(5-((2-methyl-5-((4-(trifluoromethyl)pyridin-2-yl)carbamoyl)phenyl)ethynyl)thiazol-2-yl)morpholine-4-carboxamide] | < 10 | 10 to 50 | < 10 | < 10 |
| COCCN(C)C(=O)Nc1ncc(C#Cc2cccc(NC(=O)c3cc(C(F)(F)F)ccn3)c2)s1 [I-61, N-(3-((2-(3-(2-methoxyethyl)-3-methylureido)thiazol-5-yl)ethynyl)phenyl)-4-(trifluoromethyl)picolinamide] | 10 to 50 | 10 to 50 | < 10 | 10 to 50 |
| Cc1ccc(C(=O)Nc2cc(C(F)(F)F)ccn2)cc1C#Cc1cnc(NC(=O)NCCN(C)C)s1 [I-11, 3-((2-(3-(2-(dimethylamino)ethyl)ureido)thiazol-5-yl)ethynyl)-4-methyl-N-(4-(trifluoromethyl)pyridin-2-yl)benzamide] | 10 to 50 | 10 to 50 | < 10 | 10 to 50 |
| Cc1ccc(NC(=O)c2cc(C(F)(F)F)ccn2)cc1C#Cc1cnc(NC(=O)N(C)CCN(C)C)s1 [I-58, N-(3-((2-(3-(2-(dimethylamino)ethyl)-3-methylureido)thiazol-5-yl)ethynyl)-4-methylphenyl)-4-(trifluoromethyl)picolinamide] | 100 to 10000 | 50 to 100 | < 10 | 50 to 100 |
